The source of these data is PubChem BioAssay (NCI).

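Results reflect a 48-hour exposure of cells in 96-well plates to compound at five concentrations. GI50: concentration for 50% inhibition of growth. The concentration for full growth arrest is given as TGI.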

Common to all, as to assay: growth of human tumour cells (NCI), 48 h
In experiment [1] the test system is PC-3 prostate.
In experiment [2] the test system is OVCAR-4 ovarian.
Experiment [3] deals with IGROV1 ovarian.
For experiment [4], the system named is SN12C renal.
Experiment [5] deals with 786-0 renal.
The subject of experiment [6] is SR leukemia.
Experiment [7] relates to MCF7 breast.
The subject of experiment [8] is LOX IMVI melanoma.
Experiment [9] deals with SK-MEL-2 melanoma.
Experiment [10] concerns MDA-MB-231 breast.

For `COC(=O)c1ccccc1/C=C1\Cc2c(C)c3c(c(C)c2C1=O)CCC3`, the TGI in experiment [1], in experiment [2], in experiment [3], in experiment [4], in experiment [5] and in experiment [6] was over 100 µM throughout. Further, the TGI in experiment [7], in experiment [8] and in experiment [9] was over 100 µM each time.
On to `C1=C(CC2=C[P+](c3ccccc3)(c3ccccc3)C=C(c3ccccc3)O2)OC(c2ccccc2)=C[P+]1(c1ccccc1)c1ccccc1`, for which the TGI was found to be 1.4 µM in [1]; 0.43 µM in experiment [3]; 2.07 µM in [5]; 0.538 µM in [6]; 1.67 µM in [8]; 0.938 µM in experiment [10].
As to `CN(C)CCn1c(=O)c2ccc(NCCNCCO)c3c(=O)c4ccccc4n(c1=O)c23`, the TGI in experiment [1] is 2.09 µM; in experiment [2] it was 5.24 µM; in experiment [3], 1.87 µM; in experiment [4] it was 0.509 µM; in [5], 4.16 µM; in experiment [7] it was 3.2 µM. The TGI turned out to be 0.78 µM in [8], 1.85 µM in experiment [9] and 0.852 µM in experiment [10].
As to `Cc1cccc2nc(-c3ccccc3)cc(=O)n12`, the TGI in experiment [1], in experiment [2], in experiment [3], in experiment [4], in experiment [5] and in experiment [6] was over 100 µM throughout. Further, the TGI in [7] and in [10] was over 100 µM in each case.
As to `O=C1Cc2c([nH]c3ccc(Br)cc23)-c2cc(Br)ccc2N1`, the TGI in [1], in [2], in [5], in experiment [7], in experiment [8] and in experiment [9] was over 100 µM throughout. Also, the TGI in [10] is over 100 µM.
Regarding `Cc1cccc(N/C(=C(/C(Cl)=C(Cl)Cl)[N+](=O)[O-])n2nnc3ccccc32)c1`, the TGI in experiment [1] was 30.1 µM; in experiment [2] it was 39.5 µM; in [4], 32.9 µM; in experiment [5], 35.7 µM; in experiment [7], 50 µM; in experiment [9] it was 36.3 µM. Besides, the TGI in experiment [10] amounted to 27.1 µM.
For `COc1cc2c(/C=C3/C(=O)Nc4ccc(O)cc43)c(Cl)n(Cc3ccccc3)c2cc1C`, the TGI in experiment [1] was over 87.1 µM; in experiment [2] it was over 100 µM; in experiment [3] it was 16.8 µM; in [4], over 45.3 µM; in experiment [5] it was 3.28 µM; in experiment [6], 3.35 µM. Moreover, the TGI is 24.9 µM in [8], over 100 µM in [9] and 42 µM in experiment [10].
For `[O-][n+]1nc(N2CCOCC2)nc2ccccc21`, the TGI in experiment [1], in [3], in [4], in experiment [5], in experiment [7] and in experiment [8] was over 100 µM in each case. Besides, the TGI in experiment [9] and in [10] was over 100 µM in each case.
As for `CC(=O)O[C@H]1C(=O)[C@@]2(C)[C@H]([C@H](OC(=O)c3ccccc3)[C@]3(O)C[C@H](OC(=O)[C@H](O)[C@@H](NC(=O)c4ccc(N)cc4)c4ccccc4)C(C)=C1C3(C)C)[C@]1(OC(C)=O)CO[C@@H]1C[C@@H]2O`, the TGI is over 50 µM in experiment [1]; over 50 µM in [2]; over 50 µM in experiment [3]; over 50 µM in experiment [5]; over 41.9 µM in [6]; over 50 µM in experiment [7]. In addition, the TGI in [8] and in [10] was over 50 µM each time.
Turning to `CCCCCCCC(CC(=O)NC(CO)C(=O)NC(CO)CC(C)C)OC(=O)CC(CCCCCCC)OC(=O)CC(CCCCCCC)OC1OC(C)C(O)C(OC2OC(C)C(O)C(OC(C)=O)C2O)C1O` (stereo unspecified), the TGI in [1] came out at 20.6 µM; in [2] it was 27.8 µM; in [3] it was 24.8 µM; in [4], 19.9 µM; in experiment [5], 26.4 µM; in [6], 13.2 µM. Also, the TGI worked out at 24.7 µM in experiment [7] and 23.4 µM in [10].
As for `Cc1nc2ccccc2c(=O)n1NC(=O)c1ccccn1`, the TGI in experiment [1], in experiment [2], in [3], in experiment [4], in [5] and in experiment [6] was over 100 µM throughout. The TGI in [8] and in experiment [10] was over 100 µM throughout.
With `Cc1ccc(-c2c(C#N)c(-c3ccccc3)n(NS(=O)(=O)c3ccc(C)cc3)c(=O)c2C#N)cc1`, the TGI in experiment [1], in experiment [2], in experiment [3], in [4], in experiment [5] and in experiment [7] was over 100 µM in each case. For the same molecule, the TGI in [8], in [9] and in [10] was over 100 µM throughout.
In the case of `O=C1c2c(Br)sc(Br)c2C(NC(=O)C(F)(F)F)C1O` (stereo unspecified), the TGI in [1] was 74.9 µM; in experiment [2] it was 34.8 µM; in experiment [3] it was 42.3 µM; in experiment [4], 34.1 µM; in experiment [5] it was 36.7 µM; in experiment [7] it was 45.3 µM. The TGI came to 44.5 µM in experiment [8], 40.9 µM in experiment [9] and 38.5 µM in [10].
For `COc1ccc(CC2Cc3ccccc3CCN2)cc1OC` (stereo unspecified), the TGI in experiment [1], in [2], in [3], in experiment [4], in experiment [5] and in [7] was over 50 µM each time. Moreover, the TGI in experiment [8], in experiment [9] and in [10] was over 50 µM throughout.
In the case of `COC(=O)c1ccccc1/C=C1\Cc2c(ccc3c2CCC3)C1=O`, the TGI in experiment [1], in experiment [2], in experiment [3], in [4], in [5] and in experiment [6] was over 100 µM throughout. The TGI in experiment [7], in experiment [8] and in [9] was over 100 µM throughout.
For `O=S(=O)(/N=S(/Nc1ccccc1)C(Cl)Cl)c1ccccc1` (stereo unspecified), the TGI in [1], in experiment [2], in experiment [3], in experiment [4], in [5] and in experiment [7] was over 100 µM each time. Besides, the TGI in experiment [8], in experiment [9] and in [10] was over 100 µM in each case.
As for `Cc1c2c(cc3c1C(=O)C(=O)C([C@@H](C)CO)=C3O)C(C)(C)CCC2`, the TGI was 48.2 µM in [1]; over 100 µM in experiment [2]; over 100 µM in experiment [3]; over 100 µM in experiment [4]; over 100 µM in [5]; 56.7 µM in experiment [6]. For the same molecule, the figures for the TGI in experiment [8], in [9] and in experiment [10] were over 100 µM, 47.2 µM and over 100 µM, respectively.
For the molecule `Cc1cc(S(=O)(=O)Nc2nc(N)nc(N3N=CCC3C)n2)c(SCC(=O)O)cc1Cl` (stereo unspecified), the TGI in experiment [1], in experiment [2], in experiment [3], in experiment [4], in [5] and in [7] was over 10 µM each time. The TGI in [8], in experiment [9] and in [10] was over 10 µM throughout.
For the molecule `CCOc1cccc(C=Nc2ccccc2SSc2ccccc2N=Cc2cccc(OCC)c2O)c1O`, the TGI amounted to 12.8 µM in experiment [1]; 14.3 µM in experiment [2]; 15.9 µM in experiment [3]; 35.7 µM in experiment [4]; 19.8 µM in experiment [5]; 28.2 µM in experiment [6]. Moreover, the TGI in [8] stood at 14.9 µM; in [9] it was 37.7 µM; in [10], 35 µM.
`CN(CCC(=O)N1CC(CCl)c2ccc([N+](=O)[O-])cc21)CCC(=O)N1CC(CCl)c2ccc([N+](=O)[O-])cc21` (stereo unspecified): the TGI is over 100 µM in experiment [1]; over 100 µM in experiment [2]; 41.1 µM in experiment [4]; 25 µM in [5]; 23.5 µM in experiment [7]; 21.7 µM in [8]. Besides, the TGI is 26 µM in experiment [9] and 44.5 µM in experiment [10].
Regarding `COc1cc2c(cc1C)NC(=O)/C2=C/c1cccnc1`, the TGI was over 64.6 µM in [1]; 56.4 µM in experiment [2]; over 100 µM in [3]; 29.5 µM in experiment [4]; over 52.5 µM in experiment [5]; 32.3 µM in [7]. Moreover, the TGI is over 53.8 µM in [8], 46.5 µM in experiment [9] and 27.5 µM in [10]. The GI50 in experiment [3] is 19.5 µM; in experiment [10], 9.27 µM.
Take `Nc1cc(Cl)cc2cc(Cl)cnc12`: the TGI in experiment [1], in experiment [2], in experiment [3], in experiment [4], in experiment [5] and in experiment [6] was over 100 µM throughout. Moreover, the TGI in [7], in [8] and in experiment [10] was over 100 µM throughout.
Turning to `CC(=O)C(C(=O)c1ccc(C)cc1)[C@@H]1OC(C)(C)O[C@@H]1[C@H]1COC(C)(C)O1` (stereo partly specified), the TGI is over 31.9 µM in experiment [1]; over 26.3 µM in [2]; over 74.8 µM in [3]; 17.3 µM in [4]; 21.5 µM in [5]; 15.4 µM in experiment [7]. Further, the TGI is 21.8 µM in [8], over 23.2 µM in [9] and over 35.1 µM in experiment [10].
Regarding `C1C2CC3CC1CC(c1nn4c(C56CC7CC(CC(C7)C5)C6)nnc4s1)(C2)C3`, the TGI in experiment [1], in [2], in experiment [3], in [4], in [5] and in experiment [6] was over 100 µM throughout. The TGI in experiment [8], in experiment [9] and in [10] was over 100 µM in each case.
`COC(=O)C1=CC2C(=O)c3ccccc3C1(c1ccccc1)N2C1CCCCC1` (stereo unspecified): the TGI was over 100 µM in experiment [1]; 91.6 µM in experiment [2]; over 100 µM in [3]; over 100 µM in experiment [4]; over 100 µM in experiment [5]; 36.8 µM in experiment [7]. The TGI worked out at 52.3 µM in experiment [8], 29.1 µM in [9] and 42.8 µM in experiment [10].
`CC(C)(C)c1cc(S(=O)(=O)O)c2oc(-c3ccccc3)cc(=O)c2c1`: the TGI in experiment [1], in experiment [3], in [4], in experiment [5], in experiment [6] and in experiment [7] was over 100 µM each time. Moreover, the TGI in experiment [8] and in experiment [10] was over 100 µM each time.
As to `NCc1ccc(-c2ccc(CN)s2)s1`, the TGI in experiment [1] was over 100 µM; in [2], over 100 µM; in experiment [3], 76.3 µM; in experiment [4], over 100 µM; in experiment [5] it was over 100 µM; in experiment [7], over 100 µM. In addition, the TGI in experiment [8], in experiment [9] and in experiment [10] was over 100 µM in each case.
On to `O=[N+]([O-])/C(C(Cl)=C(Cl)Cl)=C1\Nc2ccc([N+](=O)[O-])cc2N1`, for which the TGI in [1], in experiment [2], in [4], in [5], in experiment [7] and in experiment [9] was over 100 µM in each case. In experiment [10], this molecule yielded a TGI of over 100 µM.
Consider `CCCCCCCCCCCCCCCCP(=O)(O)OCC(N)C(=O)O` (stereo unspecified), for which the TGI in experiment [1] is 41.5 µM; in experiment [2] it was over 100 µM; in experiment [3], 28.9 µM; in experiment [4], over 100 µM; in experiment [5], over 100 µM; in experiment [6], 91.3 µM. For the same molecule, the TGI in [8] was found to be 40.1 µM; in experiment [9] it was 78.7 µM; in experiment [10], 82.7 µM.
`O=C1CC(Br)c2c(Br)sc(Br)c21` (stereo unspecified): the TGI in experiment [1] is 39.4 µM; in experiment [2] it was 33.3 µM; in [3], 33.5 µM; in experiment [4], 29 µM; in experiment [5], 29.9 µM; in [7] it was 32.4 µM. For the same molecule, the values for the TGI in experiment [8], in [9] and in experiment [10] were 27.4 µM, 35.8 µM and 35.1 µM, respectively.
